Data reported in paper PMC7495481, “Sequence specificity analysis of the SETD2 protein lysine methyltransferase and discovery of a SETD2 super-substrate” (Communications Biology, 2020).
Where “and” joins values, the source holds several entries; their conditions need not be identical. Equal values may be shown once.

T1: SETD2 (Homo sapiens, UniProt Q9BYW2)
T1 construct: SETD2 catalytic SET domain (amino acids 1347–1711, UniProt No: Q9BYW2); made in house; host or cells: E. coli
T1 sequence (Q9BYW2 1347-1711): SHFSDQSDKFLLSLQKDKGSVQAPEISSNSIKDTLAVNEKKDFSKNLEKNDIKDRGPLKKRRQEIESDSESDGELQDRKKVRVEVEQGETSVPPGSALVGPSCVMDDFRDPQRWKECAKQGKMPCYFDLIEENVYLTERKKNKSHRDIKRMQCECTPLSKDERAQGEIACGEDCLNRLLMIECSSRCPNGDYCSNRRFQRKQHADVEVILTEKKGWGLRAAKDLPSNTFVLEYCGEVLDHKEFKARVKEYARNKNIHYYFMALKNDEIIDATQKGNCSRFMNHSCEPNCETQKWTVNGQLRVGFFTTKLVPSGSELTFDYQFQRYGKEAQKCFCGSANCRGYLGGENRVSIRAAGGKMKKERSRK

T2: His6-tagged catalytic SET domain of SETD2 (amino acids 1347–1711) (human, UniProt Q9BYW2 1347-1711)
T2 construct: also called SET-domain containing protein 2; KMT3A; source: E. coli, purified (Ni-NTA beads)
T2 sequence (looked up): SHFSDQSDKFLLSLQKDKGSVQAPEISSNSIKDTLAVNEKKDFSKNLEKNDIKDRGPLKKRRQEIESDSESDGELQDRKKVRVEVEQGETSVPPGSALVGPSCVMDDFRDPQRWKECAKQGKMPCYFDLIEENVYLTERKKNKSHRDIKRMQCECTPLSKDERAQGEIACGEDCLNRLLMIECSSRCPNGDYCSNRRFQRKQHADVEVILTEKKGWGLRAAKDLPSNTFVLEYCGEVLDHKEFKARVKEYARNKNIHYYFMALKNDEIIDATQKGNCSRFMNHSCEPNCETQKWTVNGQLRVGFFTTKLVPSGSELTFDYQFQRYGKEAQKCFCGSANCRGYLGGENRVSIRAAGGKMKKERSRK


Tests used:
SETD2 [1] = target: T1, SETD2; assay: Peptide SPOT array methylation of H3K36 (29–43) variants, super-substrate design (Fig. 2a); type: biochemical; conditions: SPOT array; 0.76 µM radioactive AdoMet, 3–6 µM SETD2, 60 min, pH 9; autoradiography
From the text: Based on these observations, we aimed to explore, if better substrates than H3K36 can be designed for SETD2. We synthesized peptide SPOT arrays including H3K36 (29–43) as a positive control and the H3K36A mutant as a negative control, in which up to 5 combined mutations were systematically introduced that converted the original H3K36 residues into residues that are more favored (Fig. 2a and Supplementary Table 1). This peptide array was methylated by SETD2 as described above and the methylation signal was captured by autoradiography.
Fig. 2 Design of an optimized SETD2 peptide substrate and analysis of its methylation. a Variants of the H3K36 (29–43) peptide containing up to five mutations (Supplementary Table 1) were synthesized on a cellulose membrane and methylated by SETD2. The signal of the transferred radioactive methyl groups was detected by autoradiography. Spots A1 and B15 contain the H3K36 sequence, A2 and B16 the H3K36A peptide. Two films with different exposure times are shown to visualize weaker methylated spots as well. b Comparison of the methylation of purified super-substrate (ssK36) and the H3K36 peptides. […] Methylation reactions were conducted using 20 µM peptide and 6 µM enzyme. The lower panels display autoradiography films after different exposure times allowing to compare the methylation levels of the different samples. For comparison, different dilutions of the methylated ssK36 were loaded as indicated. c Time course of ssK36 peptide methylation determined under single turnover conditions using 5 µM substrate and 6 µM enzyme. […] The gels with the radioactive ssK36 (5 µl loaded per well) and H3K36 peptides (20 µl loaded per well) were exposed together to the same x-ray film. […] An enlargement of the H3K36 data with adjusted y-axis scale is shown in Supplementary Fig. 3d.
(§1) Peptide arrays containing fifteen amino acid long peptides were synthesized using the SPOT synthesis method[48] with an Autospot peptide array synthesizer (Intavis AG, Köln, Germany). After synthesis, the obtained membranes were pre-incubated in methylation buffer (20 mM Tris/HCl pH 9, 0.01% Triton X-100, 10 mM DTT, 1.5 mM MgCl2) for 5 min on a shaker. Thereafter, the membranes were incubated in methylation buffer supplemented with 0.76 µM radioactively labeled AdoMet (PerkinElmer) and 3–6 µM SETD2 enzyme for 60 min on a shaker. After methylation, the membranes were washed 5 times for 5 min in wash buffer (100 mM NH4HCO3, 1% SDS) and incubated in amplify NAMP100V (GE Healthcare) for 5 min. This was followed by the exposure of the membranes to a hyperfilm^TM high performance autoradiography (GE Healthcare) film at −80 °C in the dark. The films were developed with an Optimax Typ TR machine after different exposue times. For quantification the signal intensities were measured with the Phoretix^TM software and analyzed with Microsoft Excel.

SETD2 [2] = target: T1, SETD2; assay: Peptide SPOT array methylation of reported SETD2 substrates; type: biochemical; conditions: SPOT array on cellulose membrane; 0.76 µM radioactive AdoMet, 3–6 µM SETD2, 60 min, pH 9; autoradiography
Description: Next, the SETD2 activity was tested on peptide SPOT arrays containing fifteen amino acid long peptides immobilized on a cellulose membrane. As reported SETD2 substrates, the H3K36 (29–43), α -tubulin (33–47) and STAT1 (518–532) peptides (with the target lysine centered in each case) were included, and peptides with the corresponding target lysine mutated to alanine were used as negative controls. The peptide array was incubated in methylation buffer supplemented with SETD2 and radioactively labeled AdoMet. […] Methylation of the previously reported non-histone substrates α -tubulin and STAT1 was not detectable at the peptide level and, therefore, they were excluded from further investigation.
as §1
Supplementary Fig. 1: SETD2 protein and catalytic activity. a Purified His6-tagged SETD2 SET domain (1347-1711) was separated on an SDS-gel and […]
stained with Coomassie BB. […]
tubulin (33-47), STAT1 (518-532) and their corresponding target lysine to alanine mutant peptides were synthesized on a cellulose membrane. The membrane was incubated in methylation buffer supplemented with radioactively labeled AdoMet and SETD2. The signal of the transferred radioactive methyl groups was visualized by autoradiography.

SETD2 [3] = target: T1, SETD2; assay: Peptide SPOT array target lysine methylation of selected non-histone peptides (Fig. 3b); type: biochemical; conditions: Exp1–Exp3, 3–6 µM SETD2, 0.76 µM AdoMet, 60 min, pH 9
From the text: However, we could identify 166 possible targets, which contain partial matches to the substrate specificity profile. The possible methylation of these 166 putative substrates was investigated at the peptide level. For this, fifteen amino acid long peptides containing the sequence of the non-histone targets surrounding the predicted target lysine were synthesized on a membrane. The H3K36 (29–43) peptide (spots A1, I9), the super-substrate peptide (spots A3, I11) and the corresponding lysine to alanine mutation peptides (spot A2, I10, and A4, I12) were included as positive and negative controls (Fig. 3a, Supplementary Fig. 4 and Supplementary Table 2). The methylation reactions and the detection of the methylation signals were performed in duplicates as described above. We observed that all of the investigated peptides were more weakly methylated than the super-substrate peptide. […] In the next step, 20 of the peptides were selected for further investigation based on the methylation intensity and the known functions of the proteins to confirm the methylation at the predicted target site. The peptides were synthesized on another membrane, now including the target lysine to alanine mutation control peptides in each case. The methylation reactions and the detection of the signal were conducted as described above (Fig. 3b, Supplementary Fig. 5 and Supplementary Table 3).
Fig. 3 Identification of non-histone substrates of SETD2. a Candidate non-histone peptide substrates were identified in the human proteome based on the SETD2 super-substrate specificity profile. The peptides were synthesized on a peptide SPOT array (Supplementary Table 2) and methylated by SETD2. As controls, the H3K36, H3K36A, ssK36 and ssK36A peptides were included on spots A1–A4 and I9–I12. The autoradiography image is an example of the obtained results. […] The quantification of the data of two experiments is shown in Supplementary Fig. 4. b Analysis of target lysine methylation of selected non-histone substrate peptides. Peptide SPOT arrays were synthesized containing the non-histone peptide substrates identified in panel A in addition to the lysine to alanine mutations presented on the array as every second spot (Supplementary Table 3). As controls, the H3K36, H3K36A, ssK36, and ssK36A mutant peptides were included on spot A1–A4 and C5–C8. The autoradiography image is an example of the obtained results. The quantification of the data of three experiments is shown in Supplementary Fig. 5. Peptides selected for furhter analysis are highlighted by blue circles. c Protein methylation of FBN1 and confirmation of the target lysine methylation. Both wild type (WT) and mutant (K666R) FBN1 were purified and equal amounts were methylated by SETD2 (2 µM). […] The size of FBN1 is indicated by an asterisk.
as §1

SETD2 [4] = target: T1, SETD2; assay: Protein methylation assay (non-histone proteins, GST fusions, nucleosomes, H3.1); type: biochemical; conditions: based on own results and literature data, ref [18],[19]
From the text: The 9 new putative non-histone substrates of SETD2 were cloned into a pGEX-6p2 bacterial expression vector for protein expression. Six of them could be expressed and purified through glutathione sepharose beads (Table 1). For comparison, the super-substrate sequence was cloned with a […] GST-tag (ssK36-GST) to mimic the natural setting of the H3K36 site in the N-terminal tail of histone 3. Similar amounts of the purified non-histone substrate proteins and the ssK36-GST protein were loaded on an SDS-gel and stained with Coomassie BB (Supplementary Fig. 6a). Afterward protein methylation reactions were conducted using radioactively labeled AdoMet and the radioactive signal of the methyl group transfer was detected by autoradiography (Supplementary Fig. 6b). […] Next, we aimed to confirm the FBN1 methylation at the predicated target lysine K666. For this, a K666R mutation was introduced and the wildtype and mutant FBN1 proteins were purified by affinity chromatography. […]
Protein methylation reactions were performed in 40 µl methylation buffer containing 0.76 µM radioactive labeled AdoMet (PerkinElmer), approximately 20 µg of substrate protein and 6 µM SETD2 enzyme (if not otherwise indicated) for 3 h at 25 °C. […] The radioactive methylation signal was detected by a hyperfilm^TM high performance autoradiography film (GE Healthcare) at −80 °C in the dark. […]

[5] = target: T2, His6-tagged catalytic SET domain of …; assay: enzyme inhibition kinetics (competitive inhibition of peptide methylation); 20 µM ssK36 (29–43) substrate peptide, 6 µM SETD2, inhibitor peptide 0 to 320 µM, methylation buffer (20 mM Tris/HCl pH 9, 0.01% Triton X-100, 10 mM DTT, 1.5 mM MgCl2) with 0.76 µM radioactively labeled AdoMet, 25 °C, Tricine-SDS-PAGE and autoradiography; global fit to a competitive inhibition steady-state model; conditions: both partners purified

Molecule | peptide array methylation of H3K36 variants (in words) (SETD2 [1]) | peptide spot methylation signal (SETD2 [2]) | Relative methylation signal, Average (SETD2 [3]) | further results
APAFGGVKKPHRYRP [T32F] | stepwise improvement of activity with increasing number of mutations |  |  | 
APATGGVAKPHRYRP [K36A, H3K36A mutant peptide, negative control, reference compound] |  | did not show a detectable peptide methylation signal | 0.2341 and 0.1607 | 
APATGGVKKPHRYRP [H3K36, H3K36 (29–43) peptide on SPOT array, reference compound] |  | detectable methylation | 0.4318 and 0.3786 | 
APRFGGVKKPHRYRP [A31R/T32F] | stepwise improvement of activity with increasing number of mutations |  |  | 
APRFGGVKRPHRYRP [A31R/T32F/K37R] | stepwise improvement of activity with increasing number of mutations |  |  | 
DGQMPSDKTIGGGDD [α-tubulin (33–47), reported SETD2 substrate peptide, K40] |  | did not show a detectable peptide methylation signal |  | 
STCYGGYKRGQCIKP [FBN1, Fibrillin-1 peptide, target lysine 666] |  |  | 0.6365 | comparison of protein methylation efficiency (SETD2 [4]): more efficiently methylated than H3, α -tubulin and STAT1
KSAPATGGVMKPHRYRP (peptide, UniProt P68431 28-44, looked up, histone H3 residues 27–43 with K36M (the oncohistone mutation); source: synthetic peptide, bought: Intavis AG (Köln)) [H3K36M (27–43) peptide] |  |  |  | Ki [5]: 447 µM
APRFGGVMRPNRYRP (histone H3 residues 29–43 (UniProt P68431 printed for the parent H3K36 peptide) with the four super-substrate exchanges and K36M; source: synthetic peptide, bought: Innovative Peptide Solutions (Berlin)) [ssK36M peptide (29–43), super-substrate peptide with the target lysine changed to methionine] |  |  |  | Ki [5]: 128 µM
